Legend:
[1] = tested on: ALS-tolerant plants; test: Review of the spray test data, ALS-tolerant plants together; assay type: in vivo; conditions: review of the data of Tables 5 and 6
From the text: (§1) Seeds of normal wild variety and ALS-resistant variant of each of Stellaria media, Papaver rhoeas, Matricaria chamomilla and Matricaria inodora were sown in trays of peat-based compost placed in a glasshouse to allow germination. At the cotyledon stage, four evenly sized seedlings were transplanted into each of 9 cm diameter plastic pots containing loam soil mixed with 25% by volume horticultural silver sand and further blended with coarse grit in the ratio 3:1. The resulting potting medium was supplemented with Osmacote slow-release fertilizer (16:8:9+Mg) to provide 1.4 g per 0.35 L pot.
(§2) The formulations of each of Examples C1 to C11 and 1 to 16 were applied to the seedlings by spraying. Three replicate pots were used per treatment. Prior to spraying, the plants were watered overhead. To ensure the foliage was dry, water was not applied on the day of spraying, with the last overhead watering being the day before spraying. The herbicide formulations were made up with mains tap water. The laboratory track sprayer was set up with a Lurmark O1E80 Even spray nozzle to deliver 200±20 L/ha using gear 4 and a pressure of […] (30 psi). The application rates of the active ingredients are set out in Table 5 below.
(§3) Following spraying, the plants were returned to the glasshouse and the sprayed pots were arranged in three randomized blocks. The temperature of the glasshouse ranged from 12.2° C. to 16.1° C. by day and 10.9° C. to 13.3° C. at night. The relative humidity ranged from 75% to 101 %.
(§4) Throughout the experiment, the plants were watered to maintain the soil close to the field capacity. Following herbicide treatment, the plants were watered by sub-irrigation using individual plastic dishes for each pot to avoid any risk of cross contamination.
(§5) The visual percentage of control based on a 0-100 linear scale was assessed 21 days after treatment (DAT). The linear scale ranged from 0 (no effect) to 100 (dead plants).
(§6) In Table 6, ‘Obs’ indicates an observed result and ‘Exp’ indicates the result expected from applying the Colby equation, discussed above.

[2] = tested on: wild (non-tolerant) plants; test: Review of the spray test data, wild plants together; assay type: in vivo; conditions: review of the data of Tables 5 and 6
From the text: as §1, §2, §3, §4, §5, §6

Structure (SMILES)	damage to / effect on ALS-tolerant plants (in words) [1]	damage to wild (non-tolerant) plants (in words) [2]
COc1nc(C)nc(NC(=O)NS(=O)(=O)c2ccsc2C(=O)O)n1 [Thifensulfuron]	little or no effect	significantly damaging
CCS(=O)(=O)c1nc2ccccn2c1S(=O)(=O)NC(=O)Nc1nc(OC)cc(OC)n1 [Sulfosulfuron]	little or no effect	significantly damaging
COc1nc(C)nc(N(C)C(=O)NS(=O)(=O)c2ccccc2C(=O)O)n1 [Tribenuron]	little or no effect	significantly damaging
COc1cc(OC)nc(NC(=O)NS(=O)(=O)N(C)S(C)(=O)=O)n1 [Amidosulfuron]	little or no effect	significantly damaging
COc1cc(OC)nc(NC(=O)NS(=O)(=O)c2cc(CNS(C)(=O)=O)ccc2C(=O)O)n1 [Mesosulfuron]	little or no effect	significantly damaging
COc1nc(C)nc(=NC(=O)NS(=O)(=O)c2ccccc2C(=O)O)[nH]1 [Metsulfuron]	little or no effect	significantly damaging
COc1nc(C)nc(NC(=O)NS(=O)(=O)c2cc(I)ccc2C(=O)O)n1 [Iodosulfuron]	little or no effect	significantly damaging
CSc1nnc(C(C)(C)C)c(=O)n1N [metribuzin, 4-amino-6-tert-butyl-4,5-dihydro-3-methylthio-1,2,4-triazin-5-one]	caused damage	caused damage
COc1cc(OC)nc(NC(=O)NS(=O)(=O)c2ncccc2C(=O)N(C)C)n1 [Nicosulfuron]	little or no effect	significantly damaging
CCS(=O)(=O)c1cccnc1S(=O)(=O)NC(=O)Nc1nc(OC)cc(OC)n1 [Rimsulfuron]	little or no effect	significantly damaging
COc1cc(OC)nc(NC(=O)NS(=O)(=O)c2c(C(=O)O)c(Cl)nn2C)n1 [Halosulfuron]	little or no effect	significantly damaging
